This is an account of results in patent US20240217957A1, “HETEROCYCLIC COMPOUND AND USE THEREOF” (TAKEDA PHARMACEUTICAL COMPANY LIMITED, priority 2022, published 2024).

For the assay, the target named is T1, human OX2 receptor (Homo sapiens, UniProt O43614).
T1 construct: expressed in transfected cells
T1 sequence (O43614 1-444): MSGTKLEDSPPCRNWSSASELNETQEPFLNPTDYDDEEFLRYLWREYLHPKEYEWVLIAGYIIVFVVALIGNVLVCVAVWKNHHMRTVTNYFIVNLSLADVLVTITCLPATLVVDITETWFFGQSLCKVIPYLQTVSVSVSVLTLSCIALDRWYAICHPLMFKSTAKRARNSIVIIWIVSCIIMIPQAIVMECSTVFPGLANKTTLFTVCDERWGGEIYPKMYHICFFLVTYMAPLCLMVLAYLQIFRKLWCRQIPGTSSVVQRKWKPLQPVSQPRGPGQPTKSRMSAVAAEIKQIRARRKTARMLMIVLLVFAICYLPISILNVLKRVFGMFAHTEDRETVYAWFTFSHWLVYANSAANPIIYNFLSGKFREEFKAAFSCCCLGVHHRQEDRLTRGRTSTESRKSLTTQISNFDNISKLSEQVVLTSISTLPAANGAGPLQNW
Briefly: Measurement of orexin type 2 receptor agonist activity (calcium fluorescence, Fluo-4 AM, FDSS). It counts as cell-based. To be noted: compound at 3 μM; CHO cells forcibly expressing human OX2 receptor; DMSO = 0%, 10 nM orexin A (human) = 100%. In short, it runs like this: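 Agonist response is expressed as % of the fluorescence change given by 10 nM human orexin A, with DMSO as 0%, read over 1 min 40 s on FDSS after compound addition. Cells: stable human OX2 (1-444) CHO-K1 clones, dye-loaded with Fluo-4 AM plus probenecid in HEPES-buffered HBSS with 0.1% BSA.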
As to `Cc1cnc([C@@H]2CC(N3C[C@H](F)[C@H](NS(=O)(=O)N(C)C)C3)=NO2)c(-c2c(F)cccc2F)c1` [Example 79, N′-[(3R,4S)-1-{(5S)-5-[3-(2,6-difluorophenyl)-5-methylpyridin-2-yl]-4,5-dihydro-1,2-oxazol-3-yl}-4-fluoropyrrolidin-3-yl]-N,N-dimethylsulfuric diamide], the “OX2R agonist activity (3 μM, %)” value is on record as 100%. `CS(=O)(=O)N[C@@H]1CN(C2=NOC(c3ncc(Cl)cc3-c3c(F)cccc3F)C2)C[C@@H]1F` (stereo partly drawn) [Example 80, N-[(3R,4S)-1-{5-[5-chloro-3-(2,6-difluorophenyl)pyridin-2-yl]-4,5-dihydro-1,2-oxazol-3-yl}-4-fluoropyrrolidin-3-yl]methanesulfonamide]: the “OX2R agonist activity (3 μM, %)” value was 97%. On to `Cc1cnc([C@@H]2CC(N3C[C@H](F)[C@H](NS(=O)(=O)C(F)F)C3)=NO2)c(-c2c(F)cccc2F)c1` [Example 81, N-[(3R,4S)-1-{(5S)-5-[3-(2,6-difluorophenyl)-5-methylpyridin-2-yl]-4,5-dihydro-1,2-oxazol-3-yl}-4-fluoropyrrolidin-3-yl]-1,1-difluoromethanesulfonamide], for which the “OX2R agonist activity (3 μM, %)” value was 100%. As to `Cc1cnc([C@@H]2CC(N3C[C@H](F)[C@H](NS(=O)(=O)CF)C3)=NO2)c(-c2c(F)cc(F)cc2F)c1` [Example 82, 1-fluoro-N-[(3R,4S)-4-fluoro-1-{(5S)-5-[5-methyl-3-(2,4,6-trifluorophenyl)pyridin-2-yl]-4,5-dihydro-1,2-oxazol-3-yl}pyrrolidin-3-yl]methanesulfonamide], the “OX2R agonist activity (3 μM, %)” value amounted to 98%.

`Cc1cnc([C@@H]2CC(N3C[C@H](F)[C@H](NS(=O)(=O)N(C)C)C3)=NO2)c(-c2c(F)cc(F)cc2F)c1` [Example 83, N′-[(3R,4S)-4-fluoro-1-{(5S)-5-[5-methyl-3-(2,4,6-trifluorophenyl)pyridin-2-yl]-4,5-dihydro-1,2-oxazol-3-yl}pyrrolidin-3-yl]-N,N-dimethylsulfuric diamide]: the “OX2R agonist activity (3 μM, %)” value is reported as 103%. `CS(=O)(=O)N[C@@H]1CN(C2=NOC(c3ncc(Cl)cc3-c3c(F)cc(F)cc3F)C2)C[C@@H]1F` (stereo partly drawn) [Example 84, N-[(3R,4S)-1-{5-[5-chloro-3-(2,4,6-trifluorophenyl)pyridin-2-yl]-4,5-dihydro-1,2-oxazol-3-yl}-4-fluoropyrrolidin-3-yl]methanesulfonamide]: the “OX2R agonist activity (3 μM, %)” value came out at 97%. The result for `CS(=O)(=O)N[C@@H]1CN(C2=NOC(c3ncc(Br)cc3-c3c(F)cc(F)cc3F)C2)C[C@@H]1F` (stereo partly drawn) [Example 85, N-[(3R,4S)-1-{5-[5-bromo-3-(2,4,6-trifluorophenyl)pyridin-2-yl]-4,5-dihydro-1,2-oxazol-3-yl}-4-fluoropyrrolidin-3-yl]methanesulfonamide] reads 99%; that for `Cc1cnc(C2(CF)CC(N3C[C@H](F)[C@H](NS(C)(=O)=O)C3)=NO2)c(-c2c(F)cccc2F)c1` (stereo partly drawn) [Example 86, N-[(3R,4S)-1-{5-[3-(2,6-difluorophenyl)-5-methylpyridin-2-yl]-5-(fluoromethyl)-4,5-dihydro-1,2-oxazol-3-yl}-4-fluoropyrrolidin-3-yl]methanesulfonamide], 95%; that for `CS(=O)(=O)N[C@H]1CCN(C2=NOC(CF)(c3ncc(F)cc3-c3c(F)cccc3F)C2)C1` (stereo partly drawn) [Example 87, N-[(3S)-1-{5-[3-(2,6-difluorophenyl)-5-fluoropyridin-2-yl]-5-(fluoromethyl)-4,5-dihydro-1,2-oxazol-3-yl}pyrrolidin-3-yl]methanesulfonamide], 104%. Regarding `CCS(=O)(=O)N[C@H]1CCN(C2=NOC(CF)(c3ncc(F)cc3-c3c(F)cccc3F)C2)C1` (stereo partly drawn) [Example 88, N-[(3S)-1-{5-[3-(2,6-difluorophenyl)-5-fluoropyridin-2-yl]-5-(fluoromethyl)-4,5-dihydro-1,2-oxazol-3-yl}pyrrolidin-3-yl]ethanesulfonamide], the “OX2R agonist activity (3 μM, %)” value is reported as 112%. Turning to `O=S(=O)(N[C@H]1CCN(C2=NOC(CF)(c3ncc(F)cc3-c3c(F)cccc3F)C2)C1)C1(F)CC1` (stereo partly drawn) [Example 89, N-[(3S)-1-{5-[3-(2,6-difluorophenyl)-5-fluoropyridin-2-yl]-5-(fluoromethyl)-4,5-dihydro-1,2-oxazol-3-yl}pyrrolidin-3-yl]-1-fluorocyclopropane-1-sulfonamide], the “OX2R agonist activity (3 μM, %)” value is reported as 93%. Turning to `CS(=O)(=O)N[C@@H]1CN(C2=NOC(c3ncc(F)cc3-c3c(F)cc(F)cc3F)C2)C[C@@H]1F` (stereo partly drawn) [Example 90, N-[(3R,4S)-4-fluoro-1-{5-[5-fluoro-3-(2,4,6-trifluorophenyl)pyridin-2-yl]-4,5-dihydro-1,2-oxazol-3-yl}pyrrolidin-3-yl]methanesulfonamide], the “OX2R agonist activity (3 μM, %)” value turned out to be 98%. As to `COCS(=O)(=O)N[C@@H]1CN(C2=NO[C@H](c3ncc(C)cc3-c3c(F)cc(F)cc3F)C2)C[C@@H]1F` [Example 91, N-[(3R,4S)-4-fluoro-1-{(5S)-5-[5-methyl-3-(2,4,6-trifluorophenyl)pyridin-2-yl]-4,5-dihydro-1,2-oxazol-3-yl}pyrrolidin-3-yl]-1-methoxymethanesulfonamide], the “OX2R agonist activity (3 μM, %)” value is 98%. In the case of `CCS(=O)(=O)N[C@@H]1CN(C2=NO[C@H](c3ncc(C)cc3-c3c(F)cc(F)cc3F)C2)C[C@@H]1F` [Example 92, N-[(3R,4S)-4-fluoro-1-{(5S)-5-[5-methyl-3-(2,4,6-trifluorophenyl)pyridin-2-yl]-4,5-dihydro-1,2-oxazol-3-yl}pyrrolidin-3-yl]ethanesulfonamide], the “OX2R agonist activity (3 μM, %)” value was found to be 92%. As for `Cc1cnc(C2(CF)CC(N3C[C@@H](NS(C)(=O)=O)C(F)(F)C3)=NO2)c(-c2c(F)cc(F)cc2F)c1` (stereo partly drawn) [Example 93, N-[(3R)-4,4-difluoro-1-{5-(fluoromethyl)-5-[5-methyl-3-(2,4,6-trifluorophenyl)pyridin-2-yl]-4,5-dihydro-1,2-oxazol-3-yl}pyrrolidin-3-yl]methanesulfonamide], the “OX2R agonist activity (3 μM, %)” value was determined as 99%. Turning to `Cc1cnc(C2(C)CC(N3C[C@H](F)[C@H](NS(C)(=O)=O)C3)=NO2)c(-c2c(F)cccc2F)c1` (stereo partly drawn) [Example 96, N-[(3R,4S)-1-{5-[3-(2,6-difluorophenyl)-5-methylpyridin-2-yl]-5-methyl-4,5-dihydro-1,2-oxazol-3-yl}-4-fluoropyrrolidin-3-yl]methanesulfonamide], the “OX2R agonist activity (3 μM, %)” value was 99%.

Consider `Cc1cnc([C@@H]2CC(N3C[C@H](F)[C@H](NS(=O)(=O)C4CC4)C3)=NO2)c(-c2c(F)cc(F)cc2F)c1` [Example 97, N-[(3R,4S)-4-fluoro-1-{(5S)-5-[5-methyl-3-(2,4,6-trifluorophenyl)pyridin-2-yl]-4,5-dihydro-1,2-oxazol-3-yl}pyrrolidin-3-yl]cyclopropanesulfonamide], for which the “OX2R agonist activity (3 μM, %)” value worked out at 103%. For the compound `O=S(=O)(N[C@@H]1CN(C2=NOC(c3ncc(Cl)cc3-c3c(F)cccc3F)C2)C[C@@H]1F)C1CC1` (stereo partly drawn) [Example 98, N-[(3R,4S)-1-{5-[5-chloro-3-(2,6-difluorophenyl)pyridin-2-yl]-4,5-dihydro-1,2-oxazol-3-yl}-4-fluoropyrrolidin-3-yl]cyclopropanesulfonamide], the “OX2R agonist activity (3 μM, %)” value was 108%. Take `Cc1cnc([C@@H]2CC(N3CC[C@H](NS(=O)(=O)C(C)F)C3)=NO2)c(-c2c(F)cccc2F)c1` (stereo partly drawn) [Example 99, N-[(3S)-1-{(5S)-5-[3-(2,6-difluorophenyl)-5-methylpyridin-2-yl]-4,5-dihydro-1,2-oxazol-3-yl}pyrrolidin-3-yl]-1-fluoroethane-1-sulfonamide]: the “OX2R agonist activity (3 μM, %)” value is on record as 101%.

For the compound `Cc1cnc([C@@H]2CC(N3CC[C@H](NS(=O)(=O)C(C)F)C3)=NO2)c(-c2c(F)cc(F)cc2F)c1` (stereo partly drawn) [Example 100, 1-fluoro-N-[(3S)-1-{(5S)-5-[5-methyl-3-(2,4,6-trifluorophenyl)pyridin-2-yl]-4,5-dihydro-1,2-oxazol-3-yl}pyrrolidin-3-yl]ethane-1-sulfonamide], the “OX2R agonist activity (3 μM, %)” value was found to be 99%. Consider `O=S(=O)(CF)N[C@H]1CCN(C2=NOC(c3ncc(Cl)cc3-c3c(F)cccc3F)C2)C1` (stereo partly drawn) [Example 101, N-[(3S)-1-{5-[5-chloro-3-(2,6-difluorophenyl)pyridin-2-yl]-4,5-dihydro-1,2-oxazol-3-yl}pyrrolidin-3-yl]-1-fluoromethanesulfonamide], for which the “OX2R agonist activity (3 μM, %)” value is on record as 98%. Consider `O=S(=O)(CF)N[C@H]1CCN(C2=NOC(c3ncc(Br)cc3-c3c(F)cccc3F)C2)C1` (stereo partly drawn) [Example 102, N-[(3S)-1-{5-[5-bromo-3-(2,6-difluorophenyl)pyridin-2-yl]-4,5-dihydro-1,2-oxazol-3-yl}pyrrolidin-3-yl]-1-fluoromethanesulfonamide], for which the “OX2R agonist activity (3 μM, %)” value was 95%. Next, `CS(=O)(=O)N[C@@H]1CN(C2=NOC(c3ncc(Cl)cc3-c3c(F)cccc3F)C2)C[C@@H]1F` (stereo partly drawn) [Example 103, N-[(3R,4S)-1-{5-[5-chloro-3-(2,6-difluorophenyl)pyridin-2-yl]-4,5-dihydro-1,2-oxazol-3-yl}-4-fluoropyrrolidin-3-yl]methanesulfonamide]: 96%.
